The target of the assay is T1, Human IP6K1 (Homo sapiens, UniProt Q92551).
T1 construct: GST (N, cleaved yes); made in house; host or cells: C43 E. coli, pGEX-6P-2
Nature of the assay: IP6K1 high-throughput screen of the Sigma LOPAC (ADP-Glo Max, single point).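 Further: final compound concentration 10µM in 5% DMSO.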 It counts as biochemical. On the technique in general: ADP-Glo turns the ADP formed in a reaction into a luminescent signal.

Setting [1] is: LOPAC single-point screen, ADP-Glo Max raw signal per well.
[2] abbreviates: LOPAC single-point screen, Z-score from raw signal with plate average and StDev.
Setting [3] is: LOPAC single-point screen, Z-score against plate average and StDev.
Setting [4] is: Sigma LOPAC single-point screen, ADP-Glo Max raw signal per well.
[5] abbreviates: Sigma LOPAC single-point screen, Z-score from plate average and StDev.
Where [6] appears, read: LOPAC single-point screen, ADP-Glo Max luminescence raw signal per well.
The mark [7] stands for this setting: LOPAC single-point screen, Z-score from plate average and StDev.
Where [8] appears, read: LOPAC single-point screen, Z-score relative to plate average and StDev.

Where a name gives a salt, the structure may show the parent alone.

These results are taken from publication PMC5706701, “Development of a homogenous high-throughput assay for inositol hexakisphosphate kinase 1 activity” (PLoS ONE, 2017).

T1 sequence (Q92551 whole entry): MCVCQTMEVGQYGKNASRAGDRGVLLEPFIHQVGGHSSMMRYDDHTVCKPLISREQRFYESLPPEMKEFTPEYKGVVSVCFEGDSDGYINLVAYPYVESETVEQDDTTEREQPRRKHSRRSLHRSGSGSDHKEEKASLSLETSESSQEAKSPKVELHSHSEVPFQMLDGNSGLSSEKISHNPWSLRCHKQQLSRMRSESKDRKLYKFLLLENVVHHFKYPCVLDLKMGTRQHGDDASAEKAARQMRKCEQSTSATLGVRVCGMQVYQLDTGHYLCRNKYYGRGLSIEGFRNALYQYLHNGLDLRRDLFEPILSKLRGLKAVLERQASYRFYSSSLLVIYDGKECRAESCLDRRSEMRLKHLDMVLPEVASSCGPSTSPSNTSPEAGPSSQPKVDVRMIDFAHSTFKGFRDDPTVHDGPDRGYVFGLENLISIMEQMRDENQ

Take `O=C1OC(=O)[C@H]2[C@@H]1[C@@H]1CC[C@H]2O1` [Norcantharidin]: the “Raw Signal” value under setting [1] was found to be 52142. Further, under setting [2], the Z-score was -0.3783.
In the case of `CNCCC=C1c2ccccc2CCc2ccccc21` [Nortriptyline hydrochloride], the “Raw Signal” value under setting [1] is given as 54505. Under setting [3], this compound returned a Z-score of 0.01873.
Turning to `COc1ccc2c(c1OC)C(=O)O[C@@H]2[C@H]1c2c(cc3c(c2OC)OCO3)CCN1C.Cl` [Noscapine hydrchloride], under setting [1], the “Raw Signal” value was determined as 53510. The same compound yielded a Z-score under setting [2] of -0.1485.
`CC(CCc1ccccc1)NC(C)C(O)c1ccc(O)cc1` (stereo not drawn) [Nylidrin hydrochloride]: the “Raw Signal” value under setting [1] worked out at 56232. Under setting [3], this compound displayed a Z-score of 0.3089.
As to `Nc1nc(OCc2ccccc2)c2nc[nH]c2n1` [O6-benzylguanine], the “Raw Signal” value under setting [1] worked out at 56623. This compound also returned a Z-score under setting [2] of -0.2272.
Taken in the same sequence, the figures for `COc1ccc2[nH]cc(CCN)c2c1.Cl` [O-Methylserotonin hydrochloride] were 53655 and -0.1241.
`N[C@@H](COP(=O)(O)O)C(=O)O` [O-Phospho-L-serine]: the “Raw Signal” value under setting [4] is given as 59842. Moreover, the Z-score under setting [5] is on record as 0.9155.
For `O=c1onc2cnc3ccccc3n12` [ODQ], the “Raw Signal” value under setting [4] is reported as 60819. In addition, the Z-score under setting [5] was 1.08.
The like results for `C[C@@H]1O[C@H](C[N+](C)(C)C)CS1.[I-]` [OXA-22 iodide] were, in that order, 57438 and 0.4612.
Consider `CC1COc2c(N3CCN(C)CC3)c(F)cc3c(=O)c(C(=O)O)cn1c23` (stereo not drawn) [Ofloxacin], for which the “Raw Signal” value under setting [1] is 52269. Moreover, the Z-score under setting [2] is given as -0.357.
The like results for `CCCCCCCC/C=C\CCCCCCCC(=O)O` [Oleic Acid] were, in that order, 53829 and -0.09485.
In the case of `Cn1cnc2c(NCc3ccccc3)nc(NCCO)nc21` [Olomoucine], under setting [4], the “Raw Signal” value came to 60982. The same compound came in with a Z-score under setting [5] of 1.107.
The like results for `C[C@@H]1O[C@@H](O[C@H]2C[C@@H](O)[C@]3(CO)[C@H]4[C@H](O)C[C@]5(C)[C@@H](C6=CC(=O)OC6)CC[C@]5(O)[C@@H]4CC[C@]3(O)C2)[C@H](O)[C@H](O)[C@H]1O` [Ouabain] were, in that order, 56928 and 0.4259.
As to `O=C(O)CCc1nc(-c2ccccc2)c(-c2ccccc2)o1` [Oxaprozin], the “Raw Signal” value under setting [4] was 57771. This compound gave a Z-score under setting [5] of 0.5675.
`O=c1[nH]c2ccccc2n1CCCN1CCN(C(c2ccccc2)c2ccccc2)CC1` [Oxatomide]: the “Raw Signal” value under setting [1] is recorded as 55062. Besides, the Z-score under setting [3] is recorded as 0.1123.
Taken in the same sequence, the figures for `NC(=O)CN1CC(O)CC1=O` (stereo not drawn) [Oxiracetam] were 55053 and 0.1108.
`CCn1cc(C(=O)O)c(=O)c2cc3c(cc21)OCO3` [Oxolinic acid]: the “Raw Signal” value under setting [4] is on record as 60270. Also, under setting [5], the Z-score is 0.9874.
`C[N+](C)(C)CC#CCN1CCCC1=O` [Oxotremorine methiodide]: under setting [6], the “Raw Signal” value worked out at 63016. The Z-score under setting [7] was 1.4488.
As for `O=C(O)/C=C/C(=O)O.O=C(O)/C=C/C(=O)O.O=C(O)/C=C/C(=O)O.O=C1CCCN1CC#CCN1CCCC1.O=C1CCCN1CC#CCN1CCCC1` [Oxotremorine sesquifumarate salt], under setting [1], the “Raw Signal” value worked out at 55438. Also, the Z-score under setting [3] turned out to be 0.1755.
Taken in the same sequence, the figures for `CCN(CC)CC#CCOC(=O)C(O)(c1ccccc1)C1CCCCC1` (stereo not drawn) [Oxybutynin Chloride] were 55631 and 0.2079.
Consider `Cc1cc(C(C)(C)C)c(O)c(C)c1CC1=NCCN1` [Oxymetazoline hydrochloride], for which the “Raw Signal” value under setting [1] was 52488. This compound also came in with a Z-score under setting [2] of -0.3202.
Regarding `Nc1ccc(CCN2CCN(c3cccc(C(F)(F)F)c3)CC2)cc1` [PAPP], the “Raw Signal” value under setting [1] is on record as 56132. Under setting [3], the Z-score was 0.02102.
For `COc1cccc(-c2cc(=O)c3ccccc3o2)c1N` [PD 98,059], under setting [1], the “Raw Signal” value stood at 54412. Further, the Z-score under setting [2] is given as -0.3131.
For `Cc1cccc(C(=O)NCN2CCN(c3ccccc3C#N)CC2)c1.O=C(O)/C=C\C(=O)O` [PD 168,077 maleate], the “Raw Signal” value under setting [6] was determined as 64247. The compound also registered a Z-score under setting [7] of 1.598.
With `N=C1Sc2ccccc2C2=NCCCN12` [PD 404,182], the “Raw Signal” value under setting [1] is reported as 56268. The compound also came in with a Z-score under setting [3] of 0.315.
With `CCC(C)N(C)C(=O)c1cc2ccccc2c(-c2ccccc2Cl)n1` (stereo not drawn) [PK 11195], under setting [6], the “Raw Signal” value stood at 54307. This compound also showed a Z-score under setting [8] of -0.6351.
Turning to `Cc1nc(N=Nc2ccc(S(=O)(=O)O)cc2S(=O)(=O)O)c(COP(=O)(O)O)c(C=O)c1O` [PPADS], the “Raw Signal” value under setting [1] was 55598. In addition, under setting [3], the Z-score is recorded as -0.08273.
As for `Cc1nc(N=Nc2cc(S(=O)(=O)[O-])c3cc([N+](=O)[O-])cc(S(=O)(=O)[O-])c3c2)c(COP(=O)([O-])[O-])c(C=O)c1O.[Na+].[Na+].[Na+].[Na+]` [PPNDS tetrasodium], the “Raw Signal” value under setting [6] was found to be 31816. Besides, the Z-score under setting [8] is recorded as -3.794.
With `O=C(OCCN1CCOCC1)C1(c2ccccc2)CCCCC1` [PRE-084], the “Raw Signal” value under setting [1] worked out at 55518. Also, the Z-score under setting [3] is given as 0.1889.
Turning to `CCCCCCCCCCCCCCCC(=O)NCCO` [Palmitoylethanolamide], the “Raw Signal” value under setting [6] is 51451. Besides, the Z-score under setting [8] was -0.4944.
In the case of `CC(=O)O[C@H]1C[C@@H]2CC[C@@H]3[C@H](CC[C@@]4(C)[C@H]3C[C@H]([N+]3(C)CCCCC3)[C@@H]4OC(C)=O)[C@@]2(C)C[C@@H]1[N+]1(C)CCCCC1` [Pancuronium bromide], under setting [4], the “Raw Signal” value came out at 59072. Under setting [5], this compound returned a Z-score of 0.7861.
The like results for `COc1ccc(Cc2nccc3cc(OC)c(OC)cc23)cc1OC` [Papaverine hydrochloride] were, in that order, 61808 and 1.246.
On to `C#CCN(C)Cc1ccccc1` [Pargyline hydrochloride], for which the “Raw Signal” value under setting [1] is 54085. Under setting [2], this compound came in with a Z-score of -0.3767.
Take `NC[C@@H]1O[C@H](O[C@H]2[C@@H](O)[C@H](O[C@@H]3[C@@H](O)[C@H](N)C[C@H](N)[C@H]3O[C@H]3O[C@H](CO)[C@@H](O)[C@H](O)[C@H]3N)O[C@@H]2CO)[C@H](N)[C@@H](O)[C@@H]1O` [Paromomycin sulfate]: under setting [1], the “Raw Signal” value stood at 55765. For the same compound, the Z-score under setting [3] was -0.05028.
With `C=C1C(=O)O[C@H]2[C@H]1CC/C(C)=C/CC[C@@]1(C)O[C@@H]21` [Parthenolide], the “Raw Signal” value under setting [4] came to 56472. The compound also had a Z-score under setting [5] of 0.3492.
Taken in the same sequence, the figures for `CN1C(C)(C)CCCC1(C)C` [Pempidine tartrate] were 56899 and 0.421.
For `N=C(N)c1ccc(OCCCCCOc2ccc(C(=N)N)cc2)cc1` [Pentamidine isethionate], the “Raw Signal” value under setting [1] was 54696. Further, the Z-score under setting [3] is listed as 0.05083.
For `C[N+]1(CCCCC[N+]2(C)CCCC2)CCCC1.O=C([O-])C(O)C(O)C(=O)O.O=C([O-])C(O)C(O)C(=O)O` [Pentolinium di[L(+)-tartrate]], under setting [4], the “Raw Signal” value was found to be 60160. This compound also displayed a Z-score under setting [5] of 0.9689.
With `CC(=O)CCCCn1c(=O)c2c(ncn2C)n(C)c1=O` [Pentoxifylline], under setting [1], the “Raw Signal” value was 53271. Under setting [2], this compound yielded a Z-score of -0.1886.
